# Measured values reported in patent publication US8367835B2, “Cyclic amine-1-carboxylic acid ester derivative and pharmaceutical composition containing the same” (Dainippon Sumitomo Pharma Co., Ltd., priority 2008, dated 2013).
# Like-named read-outs stand apart in the source and are kept apart here.
# Legend:
# TRPV1 = molecular target: T1, TRPV1 (Rattus norvegicus, UniProt O35433); assay: TRPV1 agonist activity by intracellular calcium level (FLIPR method); type: cell-based; details: rat dorsal root ganglion primary culture cells
# T1 construct: using cultured rat dorsal root ganglion cells which express TRPV1 abundantly; endogenous in cells; host or cells: primary culture of dorsal root ganglion cells from 7 day old Wistar rat
# T1 sequence (O35433 whole entry): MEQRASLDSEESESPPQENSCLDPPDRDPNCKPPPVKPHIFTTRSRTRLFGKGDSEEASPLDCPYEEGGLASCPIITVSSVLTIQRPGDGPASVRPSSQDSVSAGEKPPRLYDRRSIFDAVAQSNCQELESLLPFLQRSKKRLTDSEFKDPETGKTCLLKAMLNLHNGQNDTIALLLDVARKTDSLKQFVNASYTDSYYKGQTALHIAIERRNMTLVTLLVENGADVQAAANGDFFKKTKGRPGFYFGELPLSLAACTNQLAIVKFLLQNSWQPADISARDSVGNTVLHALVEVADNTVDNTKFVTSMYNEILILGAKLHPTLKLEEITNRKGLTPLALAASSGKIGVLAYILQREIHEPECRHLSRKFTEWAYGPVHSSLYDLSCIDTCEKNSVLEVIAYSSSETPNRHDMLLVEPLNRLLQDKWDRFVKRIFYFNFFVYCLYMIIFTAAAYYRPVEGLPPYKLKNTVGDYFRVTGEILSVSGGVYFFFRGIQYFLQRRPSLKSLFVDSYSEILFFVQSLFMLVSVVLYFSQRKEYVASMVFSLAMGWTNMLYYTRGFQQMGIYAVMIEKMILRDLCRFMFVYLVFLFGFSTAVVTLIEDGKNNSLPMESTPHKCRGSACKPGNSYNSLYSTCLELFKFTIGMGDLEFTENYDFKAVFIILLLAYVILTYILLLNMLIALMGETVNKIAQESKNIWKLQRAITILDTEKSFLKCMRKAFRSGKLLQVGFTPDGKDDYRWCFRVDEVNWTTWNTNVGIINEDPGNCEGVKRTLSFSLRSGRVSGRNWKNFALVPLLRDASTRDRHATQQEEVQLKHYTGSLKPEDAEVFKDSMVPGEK
# Description: The test is to measure the elevation of intracellular calcium level as the indicator of TRPV1 agonist activity of a test compound using cultured rat dorsal root ganglion cells which express TRPV1 abundantly, and carried out in accordance with the method of Jerman et al. (Jerman, J. C. et al., Comparison of effects of anandamide at recombinant and endogenous rat vanilloid receptors. Br J Anaesth, 2002. 89(6): p. 882-7). More specifically, the dorsal root ganglion was removed from a 7 day old Wistar rat, and the cells were isolated by collagenase-trypsin treatment. Subsequently, the primary cells was cultured in a CO2 incubator controlled at 5% CO2 and 37° C. for 2 days. The culture medium used was Neurobasal™ medium supplemented with L-glutamine, nerve growth factor, N-2-Supplement, Penicillin-Streptomycin, 5-Fluoro-2′-deoxyuridine (culture day 1 only) were added to.
# FLIPR^TETRA system (Molecular Devices Corp.) was used to measure the intracellular calcium concentration. As an indicator of TRPV1 agonistic activity, the fluorescence intensity elevation was monitored when a test compound is applied to the rat dorsal root ganglion primary culture cells loaded with a calcium-sensitive fluorescent reagent.
# [1] = tested on: mechanical hyperalgesia in a neuropathic pain model (rat Chung model); assay: Analgesic effect: von Frey filament test using rat Chung model, transdermal administration; type: in vivo; details: 0.1% formulation applied transdermally to plantar surface of left hindlimb once a day for 2 weeks; measured on the day after last administration; pre-administration value = 100%
# Experimental: The present test is to measure the analgesic effect based on the improvement level of the mechanical hyperalgesia in a neuropathic pain model as the indicator by transdermally administering the compound of the present invention and was carried out in accordance with the method of Kim and Chung [Pain, 50, 355-363 (1992)] or the method of Tsuda et al. [Nature, 424, 778-783, 2003].
# Specifically, using Jcl: Wistar male rat (7 to 9 rats/group, 5 weeks of age at the time of surgery), spinal nerves were injured to induce hyperalgesia and the withdrawal threshold was measured using the von Frey filament. In the surgery, under Pentobarbital anesthesia, the left L5 spinal nerve was exposed, ligated near the spinal cord using a silk suture (5-0) and transected just peripheral to the ligation. After suturing the incision and keeping the rats for 2 weeks, the rats were subjected to the von Frey filament test. The measurement of the mechanical hyperalgesia was carried out by applying von Frey filaments (1.0, 2.0, 4.0, 8.0, 15.0 g) to the plantar surface of the left hindlimb, and the filament intensity at which 50% or higher withdrawal behavior was observed was defined as the withdrawal threshold.
# After dissolving the test compounds in a mixture of Tween 80 and ethanol, the obtained solution was mixed with a hydrophilic ointment to prepare a formulation having a concentration of 0.1%. The withdrawal threshold before administering the test compound was measured to define the pre-administration value (100%). Thereafter, once a day, for 2 weeks, the formulation having a concentration of 0.1% was transdermally administered (applied) to the plantar surface of the left hindlimb, the von Frey filament test was carried out on the following day of the last administration to measure the post-administration value. Further, the same formulation as above but free of the test compound was prepared as a vehicle control and the same test was carried out.
# The analgesic effect is a relative ratio when a test compound pre-administration value calculated using the following numerical formula is 100%. The pre-administration withdrawal threshold was 3.3±0.1 g (119 cases) (the withdrawal threshold of sham-operated rat was 10 to 15 g). %=(test compound post-administration withdrawal threshold value/pre-administration withdrawal threshold value)×100
# [2] = 1 μM, read-out: Value (%) when fluorescence intensity for capsaicin (1 μM) is 100%
# [3] = read-out: Value (%) when fluorescence intensity for capsaicin (1 μM) is 100%, 1 μM
SMILES,Emax at 1 µM (TRPV1; [2]) [%],other results
"CC[C@H]1CCCC[C@H]1OC(=O)N1CCC(C(=O)NCc2ccc(O)c(OC)c2)CC1 (relative stereo) [Example 13, cis-2-ethylcyclohexyl 4-(4-hydroxy-3-methoxybenzylcarbamoyl)-piperidine-1-carboxylate]",81,
"COc1cc(CNC(=O)C2CCN(C(=O)O[C@H]3CCCC[C@H]3C)CC2)ccc1O [Example 38, (1S,2R)-2-methylcyclohexyl 4-(4-hydroxy-3-methoxybenzylcarbamoyl)-piperidine-1-carboxylate]",,% to pre-administration value (withdrawal threshold) [1]: 243%; Emax at 1 µM (TRPV1; [3]): 97%
CCCC[C@H]1CC[C@@H](OC(=O)N2CC(C(=O)NCc3ccc(O)c(OC)c3)C2)CC1 [Example 22],80,
COc1cc(CNC(=O)C2CCN(C(=O)O[C@@H]3CCC[C@H](C)C3)CC2)ccc1O [Example 9],83,
COc1cc(CNC(=O)C2CN(C(=O)O[C@H]3CCC[C@H](C)C3)C2)ccc1O [Example 18],86,
COc1cc(CNC(=O)C2CCN(C(=O)O[C@H]3CC[C@@H](C)CC3)CC2)ccc1O [Example 3],80,
COc1cc(CNC(=O)C2CCN(C(=O)O[C@H]3CC[C@H](C)CC3)CC2)ccc1O [Example 4],80,
COc1cc(CNC(=O)C2CN(C(=O)O[C@@H]3C[C@H](C)CC[C@H]3C(C)C)C2)ccc1O [Example 20],73,
COc1cc(CNC(=O)C2CN(C(=O)O[C@H]3C[C@H](C)CC[C@H]3C(C)C)C2)ccc1O [Example 21],85,
CCCC[C@H]1CC[C@H](OC(=O)N2CC(C(=O)NCc3ccc(O)c(OC)c3)C2)CC1 [Example 23],77,
COc1cc(CNC(=O)C2CCN(C(=O)O[C@@H]3CCCC[C@@H]3C)CC2)ccc1O [Example 11],,Emax at 1 µM (TRPV1; [3]): 94%
"COc1cc(CNC(=O)C2CCN(C(=O)O[C@H]3CCC[C@H](C)C3)CC2)ccc1O [Example 36, (1S,3S)-3-methylcyclohexyl 4-(4-hydroxy-3-methoxybenzylcarbamoyl)-piperidine-1-carboxylate]",,% to pre-administration value (withdrawal threshold) [1]: 209%; Value (%) when fluorescence intensity for capsaicin (1 μM) is 100% (TRPV1; 1 μM): 104%
COc1cc(CNC(=O)C2CCN(C(=O)O[C@H]3CC[C@H](C(C)(C)C)CC3)CC2)ccc1O [Example 6],80,
"COc1cc(CNC(=O)C2CCN(C(=O)O[C@H]3CCCC[C@@H]3C)CC2)ccc1O (relative stereo) [Example 47, (1S*,2S*)-2-methylcyclohexyl 4-(4-hydroxy-3-methoxybenzylcarbamoyl)-piperidine-1-carboxylate]",,Emax at 1 µM (TRPV1; [3]): 85%
"CC[C@H]1CC[C@@H](OC(=O)N2CCC(C(=O)NCc3ccc(O)c(OC)c3)CC2)CC1 [Example 1, cis-4-ethylcyclohexyl 4-(4-hydroxy-3-methoxybenzylcarbamoyl)-piperidine-1-carboxylate]",,% to pre-administration value (withdrawal threshold) [1]: 220%; Emax at 1 µM (TRPV1; [3]): 87%
COc1cc(CNC(=O)C2CCN(C(=O)O[C@@H]3C[C@H](C)C[C@H](C)C3)CC2)ccc1O [Example 12],92,
COc1cc(CNC(=O)C2CN(C(=O)OC3CC(C)(C)CC(C)(C)C3)C2)ccc1O [Example 19],84,
COc1cc(CNC(=O)C2CCN(C(=O)O[C@H]3CCC[C@H](C)C3)CC2)ccc1O [Example 10],92,
CCC1(CC)CCC(OC(=O)N2CCC(C(=O)NCc3ccc(O)c(OC)c3)CC2)CC1 [Example 7],90,
CC[C@H]1CC[C@@H](OC(=O)N2CC(C(=O)NCc3ccc(O)c(OC)c3)C2)CC1 [Example 15],83,
COc1cc(CNC(=O)C2CCN(C(=O)O[C@H]3CC[C@@H](C(C)(C)C)CC3)CC2)ccc1O [Example 5],84,
COc1cc(CNC(=O)C2CN(C(=O)O[C@H]3CC[C@H](C(C)(C)C)CC3)C2)ccc1O [Example 17],,Emax at 1 µM (TRPV1; [3]): 82%

# The next lines start with results.
Emax at 1 µM (TRPV1; [2]) [%],SMILES,other results
71,COc1cc(CNC(=O)C2CN(C(=O)O[C@H]3CC[C@H](C(C)C)CC3)C2)ccc1O [Example 25],
82,"C=C(C)[C@@H]1CC[C@@H](C)C[C@H]1OC(=O)N1CC(C(=O)NCc2ccc(O)c(OC)c2)C1 [Example 26, (1R,2S,5R)-2-isopropenyl-5-methylcyclohexyl 3-(4-hydroxy-3-methoxybenzylcarbamoyl)-azetidine-1-carboxylate]",
68,COc1cc(CNC(=O)C2CCN(C(=O)Oc3cccc(C(C)C)c3)CC2)ccc1O [Example 43],
72,COc1cc(CNC(=O)[C@@H]2CCN(C(=O)O[C@H]3CC[C@@H](C(C)(C)C)CC3)C2)ccc1O [Example 34],
91,COc1cc(CNC(=O)C2CCN(C(=O)OC3CCCCCC3)CC2)ccc1O [Example 39],
72,COc1cc(CNC(=O)C2CCN(C(=O)Oc3ccccc3C3CCCC3)CC2)ccc1O [Example 42],
84,COc1cc(CNC(=O)C2CN(C(=O)O[C@H]3CC[C@@H](C(C)C)CC3)C2)ccc1O [Example 24],
86,"COc1cc(CNC(=O)[C@H]2CCN(C(=O)OC3CCC(C)(C)CC3)C2)ccc1O [Example 27, 4,4-dimethylcyclohexyl (S)-3-(4-hydroxy-3-methoxybenzylcarbamoyl)-pyrrolidine-1-carboxylate]",
86,"COc1cc(CNC(=O)C2CCN(C(=O)O[C@@H]3CCC[C@@H](C)C3)CC2)ccc1O [Example 35, (1R,3R)-3-methylcyclohexyl 4-(4-hydroxy-3-methoxybenzylcarbamoyl)-piperidine-1-carboxylate]",% to pre-administration value (withdrawal threshold) [1]: 183%
78,CC[C@H]1CC[C@@H](OC(=O)N2CC[C@@H](C(=O)NCc3ccc(O)c(OC)c3)C2)CC1 [Example 32],
81,CC[C@H]1CC[C@@H](OC(=O)N2CC[C@H](C(=O)NCc3ccc(O)c(OC)c3)C2)CC1 [Example 28],
73,CCC1(CC)CCC(OC(=O)N2CC[C@@H](C(=O)NCc3ccc(O)c(OC)c3)C2)CC1 [Example 33],
78,COc1cc(CNC(=O)[C@H]2CCN(C(=O)O[C@H]3CC[C@@H](C(C)(C)C)CC3)C2)ccc1O [Example 30],
77,"COc1cc(CNC(=O)C2CCN(C(=O)OC3CCCCC3)CC2)ccc1O [Example 48, cyclohexyl 4-(4-hydroxy-3-methoxybenzylcarbamoyl)-piperidine-1-carboxylate]",
68,"COc1cc(CNC(=O)[C@@H]2CCN(C(=O)OC3CCC(C)(C)CC3)C2)ccc1O [Example 31, 4,4-dimethylcyclohexyl (R)-3-(4-hydroxy-3-methoxybenzylcarbamoyl)-pyrrolidine-1-carboxylate]",
68,"COc1cc(CNC(=O)C2CN(C(=O)Oc3ccccc3C3CCCC3)C2)ccc1O [Example 46, 2-cyclopentylphenyl 3-(4-hydroxy-3-methoxybenzylcarbamoyl)-azetidine-1-carboxylate]",
83,"COc1cc(CNC(=O)C2CCN(C(=O)Oc3ccccc3C(C)C)CC2)ccc1O [Example 41, 2-isopropylphenyl 4-(4-hydroxy-3-methoxybenzylcarbamoyl)-piperidine-1-carboxylate]",
83,CCC1(CC)CCC(OC(=O)N2CC[C@H](C(=O)NCc3ccc(O)c(OC)c3)C2)CC1 [Example 29],
72,"COc1cc(CNC(=O)C2CN(C(=O)Oc3ccccc3C(C)C)C2)ccc1O [Example 45, 2-isopropylphenyl 3-(4-hydroxy-3-methoxybenzylcarbamoyl)-azetidine-1-carboxylate]",
83,COc1cc(CNC(=O)C2CCN(C(=O)Oc3ccc(C(C)C)cc3)CC2)ccc1O [Example 44],
91,COc1cc(CNC(=O)C2CCN(C(=O)OCC3CCCCC3)CC2)ccc1O [Example 40],
